The values below come from patent EP0821959A2 (priority 1996, dated 1998).

pIC50, pKi: −log10 of the molar value.

What is called pIC50 is the negative decadic logarithm of the IC50, by convention in mol/L. A low value points to a high IC50. One may read the pKi as −log10 of the Ki, conventionally taken in molar units.

Assay [1] concerns the target muscarinic cholinergic receptors. The following applies: 3H-QNB binding assay.
Assay [2] has the same target. Put plainly: 3H-oxotremorine-M binding study (oxotremorine-M versus N-methylscopolamine, Freedman et al.). The conditions noted are these: inhibition of binding of 3H-oxotremorine-M; read-out: inhibition costant (Ki).
Assay [3] addresses m4 receptors (Homo sapiens, UniProt P08173). The format is cell-based. The following applies: CHO m4 cells treated with pertussis toxin.

Sequence of m4 receptors (P08173 whole entry): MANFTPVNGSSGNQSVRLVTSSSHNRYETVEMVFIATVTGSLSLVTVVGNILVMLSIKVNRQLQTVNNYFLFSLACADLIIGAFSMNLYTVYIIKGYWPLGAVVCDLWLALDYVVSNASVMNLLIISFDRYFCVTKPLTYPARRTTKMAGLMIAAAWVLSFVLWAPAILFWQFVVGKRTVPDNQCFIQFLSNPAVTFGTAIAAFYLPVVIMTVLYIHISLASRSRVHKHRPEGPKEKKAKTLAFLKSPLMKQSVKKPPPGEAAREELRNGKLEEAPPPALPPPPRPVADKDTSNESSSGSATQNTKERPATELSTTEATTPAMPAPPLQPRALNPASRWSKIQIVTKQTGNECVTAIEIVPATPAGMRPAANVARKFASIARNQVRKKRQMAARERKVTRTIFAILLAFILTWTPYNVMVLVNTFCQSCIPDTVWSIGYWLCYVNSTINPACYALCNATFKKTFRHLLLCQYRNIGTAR

Turning to `CCCCCCOc1nsnc1C1=CCCN(C)C1` [Xanomeline, 3-(4-hexyloxy-1,2,5-thiadiazol-3-yl)-1,2,5,6-tetrahydro-1-methylpyridine], the negative logarithm of the IC50 (pIC50) in assay [1] was over 3.00. Further, in assay [2], the pKi is 8.70. For the same compound, the “formation of cAMP” value in assay [3] is “efficaciously and potently stimulated the formation of cAMP”.
